Measured values reported in patent US8846951B2 (AbbVie Inc., priority 2009, dated 2014).
pEC50: −log10 of the molar value. Like-named read-outs stand apart in the source and are kept apart here.

Tests used:
5HT2B receptors = molecular target: T1, 5HT2B receptors (Homo sapiens, UniProt P41595); assay: Human 5-HT2B functional high throughput screening assay in CHO-K1 cells (calcium flux); type: cell-based; conditions: for pEC50: CHO-K1 cells, calcium flux
T1 construct: expressed in transfected cells; host or cells: CHO-K1 cells
T1 sequence (P41595 whole entry): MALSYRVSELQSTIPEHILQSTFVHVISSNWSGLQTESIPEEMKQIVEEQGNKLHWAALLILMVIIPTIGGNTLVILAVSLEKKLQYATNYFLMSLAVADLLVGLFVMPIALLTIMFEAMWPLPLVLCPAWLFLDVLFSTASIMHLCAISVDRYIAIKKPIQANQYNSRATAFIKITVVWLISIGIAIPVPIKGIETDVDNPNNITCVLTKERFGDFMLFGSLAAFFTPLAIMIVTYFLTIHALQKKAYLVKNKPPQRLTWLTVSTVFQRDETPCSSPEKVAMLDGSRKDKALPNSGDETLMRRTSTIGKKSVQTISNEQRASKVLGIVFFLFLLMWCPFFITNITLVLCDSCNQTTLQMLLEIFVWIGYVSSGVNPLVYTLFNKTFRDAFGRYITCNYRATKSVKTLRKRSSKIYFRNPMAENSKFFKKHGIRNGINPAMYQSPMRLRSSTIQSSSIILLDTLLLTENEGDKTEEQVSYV
How it was run: (§1)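 FLIPR calcium readout, ex 480/em 530 nm, 25 °C, 3 min post-addition; agonist response normalized to serotonin, 4-parameter fit → EC50, Emax (% serotonin). Cells: frozen CHO-K1 stable lines, serum-free overnight, Ca4 dye + 2.5 mM probenecid, 60 min RT dark.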

5HT2C receptors = molecular target: T2, 5HT2C receptors (Homo sapiens, UniProt P28335); assay: Human 5-HT2C functional high throughput screening assay in CHO-K1 cells (calcium flux); type: cell-based; set-up: expressed in transfected cells; host or cells: CHO-K1 cells; conditions: for Emax: 5-HT2C, maximum functional response as percentage relative to the effect of serotonin; for pEC50: CHO-K1 cells, calcium flux
T2 sequence (P28335 33-458): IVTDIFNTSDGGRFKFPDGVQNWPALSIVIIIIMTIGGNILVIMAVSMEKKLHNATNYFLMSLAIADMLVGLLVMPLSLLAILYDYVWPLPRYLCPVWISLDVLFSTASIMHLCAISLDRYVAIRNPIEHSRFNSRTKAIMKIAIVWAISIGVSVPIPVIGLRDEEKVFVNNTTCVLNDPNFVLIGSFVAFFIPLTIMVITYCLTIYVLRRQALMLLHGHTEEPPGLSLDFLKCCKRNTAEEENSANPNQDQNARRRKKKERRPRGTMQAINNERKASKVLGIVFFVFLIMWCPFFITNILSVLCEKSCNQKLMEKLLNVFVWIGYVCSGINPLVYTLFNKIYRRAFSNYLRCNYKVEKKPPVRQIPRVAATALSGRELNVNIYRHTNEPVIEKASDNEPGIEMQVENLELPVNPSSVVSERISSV
How it was run: as §1

[1] = 5-HT2B agonist activity, read-out: EC50
[2] = 5-HT2B, maximum functional response as percentage relative to the effect of serotonin
[3] = 5-HT2C agonist activity, read-out: EC50

Row | Compound | Emax (5HT2B receptors; CHO-K1) [%] | pEC50 (5HT2B receptors; EC50, 5-HT2B agonist activity) | Emax (5HT2C receptors; CHO-K1) [%] | pEC50 (5HT2C receptors; EC50, 5-HT2C agonist activity) | pEC50 (5HT2B receptors; [1]) | Emax (5HT2B receptors; [2]) | pEC50 (5HT2C receptors; [3]) | Emax (5HT2C receptors; CHO-K1, read-out: Emax) [%] | Emax (5HT2C receptors) [%] | Emax (5HT2B receptors; CHO-K1, 5-HT2B, maximum functional response as percentage relative to the effect of serotonin, read-out: Emax) [%]
1 | COc1ccc2c(c1)C(=O)N(C)C[C@@H]1CNC[C@@H]21 (relative stereo) [Example 188, Trans-8-methoxy-5-methyl-1,2,3,3a,4,5-hexahydrobenzo[e]pyrrolo[3,4-c]azepin-6(10bH)-one] | 90 | 6.00 | > 120 | 7.22 |  |  |  |  |  | 
2 | Fc1ccc2c(c1)[C@H]1CNC[C@@H]1CCO2 (relative stereo) [Example 286, Trans-9-fluoro-2,3,3a,4,5,10b-hexahydro-1H-[1]benzoxepino[4,5-c]pyrrole] | 60 | 7.30 | 90 | 6.52 |  |  |  |  |  | 
3 | CNC(=O)c1cccc(-c2ccc3c(c2)C(=O)NC[C@@H]2CN(C)C[C@@H]32)c1 (relative stereo) [Example 382, N-Methyl-3-[Trans-2-methyl-6-oxo-1,2,3,3a,4,5,6,10b-octahydropyrrolo[3,4-d][2]benzazepin-8-yl]benzamide] |  |  |  |  | < 5.00 | inactive | 7.05 | 100 |  | 
4 | CN1C[C@H]2CNC(=O)c3cc(OCc4ccccc4)ccc3[C@@H]2C1 (relative stereo) [Example 216, Trans-8-(benzyloxy)-2-methyl-1,2,3,3a,4,5-hexahydrobenzo[c]pyrrolo[3,4-e]azepin-6(10bH)-one] |  | < 5.00 | > 120 | 8.70 |  | inactive |  |  |  | 
5 | CCc1ccc(-c2ccc3c(c2)C(=O)NC[C@@H]2CN(C)C[C@@H]32)cc1 (relative stereo) [Example 139, Trans-8-(4-ethylphenyl)-2-methyl-1,2,3,3a,4,5-hexahydrobenzo[e]pyrrolo[3,4-c]azepin-6(10bH)-one] |  |  |  |  | < 5.00 | inactive | 7.52 | > 120 |  | 
6 | CCC(O)c1cccc(-c2ccc3c(c2)C(=O)NC[C@H]2CN(C)C[C@H]32)c1 (stereo partly drawn) [Example 311, (3aS,10bS)-8-[3-(1-Hydroxypropyl)phenyl]-2-methyl-2,3,3a,4,5,10b-hexahydropyrrolo[3,4-d][2]benzazepin-6(1H)-one] |  |  |  |  | < 5.00 | inactive | 9.10 | 95 |  | 
7 | O=C1NC[C@@H]2CNC[C@H]2c2ccc(-c3c(F)cccc3F)cc21 (relative stereo) [Example 276, Trans-8-(2,6-difluorophenyl)-1,2,3,3a,4,5-hexahydrobenzo[e]pyrrolo[3,4-c]azepin-6(10bH)-one] |  |  |  |  | < 5.00 | inactive | 8.10 | > 120 |  | 
8 | COc1cc(OC)c2c(c1)C(=O)NC[C@@H]1CN(Cc3ccccc3)C[C@@H]21 (relative stereo) [Example 98, Trans-2-benzyl-8,10-dimethoxy-1,2,3,3a,4,5-hexahydrobenzo[c]pyrrolo[3,4-e]azepin-6(10bH)-one] |  |  |  |  | < 5.00 | inactive | 8.00 | > 120 |  | 
9 | c1ccc2c(c1)OCC[C@@H]1CNC[C@@H]21 [Example 271, (3aS,10bR)-2,3,3a,4,5,10b-Hexahydro-1H-[1]benzoxepino[4,5-c]pyrrole] | 30 | 5.30 | 120 | 6.40 |  |  |  |  |  | 
10 | CC(C)COc1ccc2c(c1)C(=O)NC[C@@H]1CN(C)C[C@@H]21 (relative stereo) [Example 172, Trans-8-isobutoxy-2-methyl-1,2,3,3a,4,5-hexahydrobenzo[e]pyrrolo[3,4-c]azepin-6(10bH)-one] |  | < 5.00 | > 120 | 7.22 |  | inactive |  |  |  | 
11 | CN1C[C@@H]2CNC[C@H]2c2ccc(F)cc2C1=O (relative stereo) [Example 224, Trans-8-fluoro-5-methyl-1,2,3,3a,4,5-hexahydrobenzo[c]pyrrolo[3,4-e]azepin-6(10bH)-one] | 45 | 5.22 | > 120 |  |  |  |  |  |  | 
12 | Trans-8-(3-chloro-1H-pyrrol-2-yl)-2-methyl-2,3,3a,4,5,10b-hexahydropyrrolo[3,4-d][2]benzazepin-6(1H)-one and Trans-8-(5-chloro-1H-pyrrol-2-yl)-2-methyl-2,3,3a,4,5,10b-hexahydropyrrolo[3,4-d][2]benzazepin-6(1H)-one [Example 386] |  |  |  |  | < 5.00 | inactive | 7.70 |  | 65 | 
13 | CC(O)c1cccc(-c2ccc3c(c2)C(=O)NC[C@@H]2CN(C)C[C@@H]32)c1 (relative stereo) [Example 238, Trans-8-(3-(1-hydroxyethyl)phenyl)-2-methyl-1,2,3,3a,4,5-hexahydrobenzo[c]pyrrolo[3,4-e]azepin-6(10bH)-one] |  |  |  |  | < 5.00 | inactive | 9.15 | > 120 |  | 
14 | CN1C[C@H]2CNC(=O)c3cc(-c4ccc5c(c4)OCC5)ccc3[C@@H]2C1 (relative stereo) [Example 324, Trans-8-(2,3-dihydro-1-benzofuran-6-yl)-2-methyl-2,3,3a,4,5,10b-hexahydropyrrolo[3,4-d][2]benzazepin-6(1H)-one] |  |  |  |  | < 5.00 | inactive | 8.52 | 85 |  | 
15 | Fc1ccc(F)c2c1OCC[C@H]1CNC[C@H]21 (relative stereo) [Example 289, Trans-7,10-difluoro-2,3,3a,4,5,10b-hexahydro-1H-[1]benzoxepino[4,5-c]pyrrole] | 95 | 7.00 | 90 | 8.15 |  |  |  |  |  | 
16 | COc1ccc(-c2ccc3c(c2)C(=O)NC[C@@H]2CN(C)C[C@@H]32)cc1 (relative stereo) [Example 131, Trans-8-(4-methoxyphenyl)-2-methyl-1,2,3,3a,4,5-hexahydrobenzo[e]pyrrolo[3,4-c]azepin-6(10bH)-one] |  |  |  |  | < 5.00 | inactive |  | > 120 |  | 
17 | O=C1NC[C@@H]2CN(Cc3ccccc3)C[C@H]2c2sccc21 (relative stereo) [Example 101, Trans-8-benzyl-6,6a,7,8,9,9a-hexahydropyrrolo[3,4-e]thieno[3,2-c]azepin-4(5H)-one] |  |  |  |  | < 5.00 | inactive | 6.40 | > 120 |  | 
18 | Cc1cccc2c1OCC[C@H]1CNC[C@H]21 (relative stereo) [Example 291, Trans-7-methyl-2,3,3a,4,5,10b-hexahydro-1H-[1]benzoxepino[4,5-c]pyrrole] | 60 | 8.00 | 95 | 9.40 |  |  |  |  |  | 
19 | O=S(=O)(c1ccccc1F)N1Cc2cccnc2[C@@H]2CNC[C@H]2C1 (relative stereo) [Example 361, Trans-6-[(2-fluorophenyl)sulfonyl]-5,6,7,7a,8,9,10,10a-octahydropyrido[3,2-c]pyrrolo[3,4-e]azepine] | 80 | 6.52 | 80 | 7.00 |  |  |  |  |  | 
20 | CCS(=O)(=O)c1cccc(-c2ccc3c(c2)C(=O)NC[C@@H]2CN(C)C[C@@H]32)c1 (relative stereo) [Example 255, Trans-8-(3-(ethylsulfonyl)phenyl)-2-methyl-1,2,3,3a,4,5-hexahydrobenzo[c]pyrrolo[3,4-e]azepin-6(10bH)-one] |  |  |  |  | < 5.00 | inactive | 7.52 | 90 |  | 
21 | COc1ccc2c(c1)C(=O)N(C)C[C@@H]1CN(C)C[C@@H]21 (relative stereo) [Example 190, Trans-8-methoxy-2,5-dimethyl-1,2,3,3a,4,5-hexahydrobenzo[e]pyrrolo[3,4-c]azepin-6(10bH)-one] |  | < 5.00 | > 120 | 7.00 |  | inactive |  |  |  | 
22 | CN1C[C@H]2CNC(=O)c3c(OC(F)(F)F)cccc3[C@@H]2C1 [Example 112, (3aR,10bR)-2-Methyl-7-(trifluoromethoxy)-1,2,3,3a,4,5-hexahydrobenzo[c]pyrrolo[3,4-e]azepin-6(10bH)-one] |  | < 5.00 | 90 |  |  | inactive |  |  |  | 
23 | O=C1NC[C@@H]2CNC[C@H]2c2ccc(-c3ccc(F)cc3)cc21 [Example 221, (3aS,10bR)-8-(4-Fluorophenyl)-1,2,3,3a,4,5-hexahydrobenzo[e]pyrrolo[3,4-c]azepin-6(10bH)-one] |  |  |  |  | < 5.00 | inactive |  | > 120 |  | 
24 | c1ccc(CN2C[C@H]3CCNc4ccccc4[C@@H]3C2)cc1 (relative stereo) [Example 254, Trans-2-benzyl-1,2,3,3a,4,5,6,10b-octahydrobenzo[b]pyrrolo[3,4-d]azepine] |  |  |  |  | 6.10 |  | 6.00 | 105 |  | 30
